In the NIST ThermoML archive (doi:10.1021/acs.jced.6b00496):
Numbers after ± are expanded uncertainties.

Assay: xn = mol fraction of the nth substance listed
Conditions: 81.5 kPa, Liquid; for speed of sound: Sing-around technique in a fixed-path interferometer; for mass density: Vibrating tube method

CCn1cc[n+](C)c1.F[B-](F)(F)F [1-ethyl-3-methylimidazolium tetrafluoroborate] + CN(C)C=O
Conditions | mass density [kg/m3] | speed of sound [m/s]
293.15 K, x1 = 0.0997 | 1019.18 ± 4.1 | 1524.5 ± 3.1
293.15 K, x1 = 0.2042 | 1075.44 ± 4.3 | 1552.3 ± 3.1
293.15 K, x1 = 0.2983 | 1116.82 ± 4.5 | 1571.7 ± 3.2
293.15 K, x1 = 0.4111 | 1157.47 ± 4.6 | 1589.3 ± 3.2
293.15 K, x1 = 0.5003 | 1184.76 ± 4.8 | 1600.9 ± 3.3
293.15 K, x1 = 0.585 | 1206.75 ± 4.9 | 1609.6 ± 3.3
293.15 K, x1 = 0.6965 | 1231.36 ± 5 | 1618.8 ± 3.4
293.15 K, x1 = 0.7833 | 1247.19 ± 5.1 | 1625.5 ± 3.5
293.15 K, x1 = 0.9134 | 1267.67 ± 5.2 | 1633.1 ± 3.6
293.15 K, x1 = 1 | 1285.95 ± 5.3 | 1640.4 ± 3.7
298.15 K, x1 = 0.0997 | 1014.69 ± 4.1 | 1506.5 ± 3.1
298.15 K, x1 = 0.2042 | 1071.12 ± 4.3 | 1535.6 ± 3.1
298.15 K, x1 = 0.2983 | 1112.62 ± 4.5 | 1555.9 ± 3.2
298.15 K, x1 = 0.4111 | 1153.38 ± 4.6 | 1574.6 ± 3.2
298.15 K, x1 = 0.5003 | 1180.74 ± 4.7 | 1586.9 ± 3.3
298.15 K, x1 = 0.585 | 1202.77 ± 4.8 | 1596.1 ± 3.3
298.15 K, x1 = 0.6965 | 1227.44 ± 5 | 1605.9 ± 3.4
298.15 K, x1 = 0.7833 | 1243.3 ± 5 | 1612.9 ± 3.5
298.15 K, x1 = 0.9134 | 1263.82 ± 5.2 | 1620.9 ± 3.6
298.15 K, x1 = 1 | 1282.14 ± 5.3 | 1628.4 ± 3.7
303.15 K, x1 = 0.0997 | 1010.19 ± 4 | 1488.6 ± 3.1
303.15 K, x1 = 0.2042 | 1066.81 ± 4.3 | 1519 ± 3.1
303.15 K, x1 = 0.2983 | 1108.42 ± 4.4 | 1540.4 ± 3.2
303.15 K, x1 = 0.4111 | 1149.29 ± 4.6 | 1560.1 ± 3.2
303.15 K, x1 = 0.5003 | 1176.72 ± 4.7 | 1573 ± 3.3
303.15 K, x1 = 0.585 | 1198.81 ± 4.8 | 1582.7 ± 3.3
303.15 K, x1 = 0.6965 | 1223.53 ± 4.9 | 1593 ± 3.4
303.15 K, x1 = 0.7833 | 1239.43 ± 5 | 1600.5 ± 3.5
303.15 K, x1 = 0.9134 | 1259.99 ± 5.2 | 1608.8 ± 3.6
303.15 K, x1 = 1 | 1278.34 ± 5.3 | 1616 ± 3.7
308.15 K, x1 = 0.0997 | 1005.7 ± 4 | 1470.8 ± 3.1
308.15 K, x1 = 0.2042 | 1062.49 ± 4.3 | 1502.6 ± 3.1
308.15 K, x1 = 0.2983 | 1104.23 ± 4.4 | 1524.9 ± 3.2
308.15 K, x1 = 0.4111 | 1145.23 ± 4.6 | 1545.6 ± 3.2
308.15 K, x1 = 0.5003 | 1172.72 ± 4.7 | 1559.2 ± 3.3
308.15 K, x1 = 0.585 | 1194.86 ± 4.8 | 1569.4 ± 3.3
308.15 K, x1 = 0.6965 | 1219.63 ± 4.9 | 1580.3 ± 3.4
308.15 K, x1 = 0.7833 | 1235.57 ± 5 | 1588.2 ± 3.5
308.15 K, x1 = 0.9134 | 1256.17 ± 5.1 | 1596.9 ± 3.6
308.15 K, x1 = 1 | 1274.55 ± 5.3 | 1604.9 ± 3.7
313.15 K, x1 = 0.0997 | 1001.2 ± 4 | 1453.1 ± 3.1
313.15 K, x1 = 0.2042 | 1058.19 ± 4.2 | 1486.2 ± 3.1
313.15 K, x1 = 0.2983 | 1100.05 ± 4.4 | 1509.6 ± 3.2
313.15 K, x1 = 0.4111 | 1141.17 ± 4.6 | 1531.3 ± 3.2
313.15 K, x1 = 0.5003 | 1168.73 ± 4.7 | 1545.6 ± 3.3
313.15 K, x1 = 0.585 | 1190.92 ± 4.8 | 1556.3 ± 3.3
313.15 K, x1 = 0.6965 | 1215.75 ± 4.9 | 1567.7 ± 3.4
313.15 K, x1 = 0.7833 | 1231.73 ± 5 | 1576 ± 3.5
313.15 K, x1 = 0.9134 | 1252.37 ± 5.1 | 1585 ± 3.6
313.15 K, x1 = 1 | 1270.78 ± 5.2 | 1593.4 ± 3.7
318.15 K, x1 = 0.0997 | 996.709 ± 4 | 1435.6 ± 3.1
318.15 K, x1 = 0.2042 | 1053.89 ± 4.2 | 1470 ± 3.1
318.15 K, x1 = 0.2983 | 1095.88 ± 4.4 | 1494.4 ± 3.2
318.15 K, x1 = 0.4111 | 1137.12 ± 4.6 | 1517.1 ± 3.2
318.15 K, x1 = 0.5003 | 1164.76 ± 4.7 | 1532 ± 3.3
318.15 K, x1 = 0.585 | 1187 ± 4.8 | 1543.3 ± 3.3
318.15 K, x1 = 0.6965 | 1211.89 ± 4.9 | 1555.3 ± 3.4
318.15 K, x1 = 0.7833 | 1227.91 ± 5 | 1563.9 ± 3.5
318.15 K, x1 = 0.9134 | 1248.58 ± 5.1 | 1573.3 ± 3.6
318.15 K, x1 = 1 | 1267.03 ± 5.2 | 1582 ± 3.7
323.15 K, x1 = 0.0997 | 992.209 ± 4 | 1418.1 ± 3.1
323.15 K, x1 = 0.2042 | 1049.59 ± 4.2 | 1453.8 ± 3.1
323.15 K, x1 = 0.2983 | 1091.72 ± 4.4 | 1479.3 ± 3.2
323.15 K, x1 = 0.4111 | 1133.08 ± 4.5 | 1503 ± 3.2
323.15 K, x1 = 0.5003 | 1160.79 ± 4.7 | 1518.6 ± 3.3
323.15 K, x1 = 0.585 | 1183.1 ± 4.8 | 1530.4 ± 3.3
323.15 K, x1 = 0.6965 | 1208.05 ± 4.9 | 1542.9 ± 3.4
323.15 K, x1 = 0.7833 | 1224.11 ± 5 | 1551.9 ± 3.5
323.15 K, x1 = 0.9134 | 1244.82 ± 5.1 | 1561.7 ± 3.6
323.15 K, x1 = 1 | 1263.3 ± 5.2 | 1570.6 ± 3.7
328.15 K, x1 = 0.0997 | 987.708 ± 4 | 1400.7 ± 3.1
328.15 K, x1 = 0.2042 | 1045.31 ± 4.2 | 1437.8 ± 3.1
328.15 K, x1 = 0.2983 | 1087.57 ± 4.4 | 1464.2 ± 3.2
328.15 K, x1 = 0.4111 | 1129.05 ± 4.5 | 1489 ± 3.2
328.15 K, x1 = 0.5003 | 1156.85 ± 4.6 | 1505.2 ± 3.3
328.15 K, x1 = 0.585 | 1179.21 ± 4.7 | 1517.6 ± 3.3
328.15 K, x1 = 0.6965 | 1204.22 ± 4.9 | 1530.6 ± 3.4
328.15 K, x1 = 0.7833 | 1220.32 ± 4.9 | 1540 ± 3.5
328.15 K, x1 = 0.9134 | 1241.07 ± 5.1 | 1550.1 ± 3.6
328.15 K, x1 = 1 | 1259.58 ± 5.2 | 1559.4 ± 3.7
333.15 K, x1 = 0.0997 | 983.204 ± 3.9 | 1383.3 ± 3.1
333.15 K, x1 = 0.2042 | 1041.01 ± 4.2 | 1421.8 ± 3.1
333.15 K, x1 = 0.2983 | 1083.42 ± 4.3 | 1449.3 ± 3.2
333.15 K, x1 = 0.4111 | 1125.03 ± 4.5 | 1475 ± 3.2
333.15 K, x1 = 0.5003 | 1152.91 ± 4.6 | 1492 ± 3.3
333.15 K, x1 = 0.585 | 1175.33 ± 4.7 | 1504.8 ± 3.3
333.15 K, x1 = 0.6965 | 1200.41 ± 4.8 | 1518.4 ± 3.4
333.15 K, x1 = 0.7833 | 1216.55 ± 4.9 | 1528.2 ± 3.5
333.15 K, x1 = 0.9134 | 1237.34 ± 5.1 | 1538.7 ± 3.6
333.15 K, x1 = 1 | 1255.88 ± 5.2 | 1548.2 ± 3.7
338.15 K, x1 = 0.0997 | 978.699 ± 3.9 | 1366.1 ± 3.1
338.15 K, x1 = 0.2042 | 1036.73 ± 4.1 | 1405.9 ± 3.1
338.15 K, x1 = 0.2983 | 1079.28 ± 4.3 | 1434.5 ± 3.2
338.15 K, x1 = 0.4111 | 1121.03 ± 4.5 | 1461.2 ± 3.2
338.15 K, x1 = 0.5003 | 1148.99 ± 4.6 | 1478.9 ± 3.3
338.15 K, x1 = 0.585 | 1171.47 ± 4.7 | 1492.2 ± 3.3
338.15 K, x1 = 0.6965 | 1196.61 ± 4.8 | 1506.4 ± 3.4
338.15 K, x1 = 0.7833 | 1212.8 ± 4.9 | 1516.5 ± 3.5
338.15 K, x1 = 0.9134 | 1233.63 ± 5 | 1527.4 ± 3.6
338.15 K, x1 = 1 | 1252.2 ± 5.2 | 1537.2 ± 3.7
343.15 K, x1 = 0.0997 | 974.184 ± 3.9 | 1348.9 ± 3.1
343.15 K, x1 = 0.2042 | 1032.45 ± 4.1 | 1390.2 ± 3.1
343.15 K, x1 = 0.2983 | 1075.15 ± 4.3 | 1419.8 ± 3.2
343.15 K, x1 = 0.4111 | 1117.03 ± 4.5 | 1447.5 ± 3.2
343.15 K, x1 = 0.5003 | 1145.07 ± 4.6 | 1465.8 ± 3.3
343.15 K, x1 = 0.585 | 1167.62 ± 4.7 | 1479.7 ± 3.3
343.15 K, x1 = 0.6965 | 1192.82 ± 4.8 | 1494.4 ± 3.4
343.15 K, x1 = 0.7833 | 1209.06 ± 4.9 | 1504.9 ± 3.5
343.15 K, x1 = 0.9134 | 1229.93 ± 5 | 1516.1 ± 3.6
343.15 K, x1 = 1 | 1248.54 ± 5.2 | 1526.2 ± 3.7
